Earlier results as cited in patent publication US20260272955A1, “Controlled Release Formulations of Highly Lipophilic Physiologically Active Substances” (ADD Advanced Drug Delivery Technologies Ltd., priority 2019, published 2026).

Conditions: decimal logarithm of the n-octanol/water partition coefficient; values typically refer to room temperature (25° C.)

## C=C(C)[C@@H]1CCC(C)=C[C@H]1c1c(O)cc(CCCCC)cc1O [Canapure PH, 2-[1R-3-methyl-6R-(1-methylethenyl)-2-cyclohexen-1-yl]-5-pentyl-1,3-benzenediol]
  log P: about 6.1
